Results on five molecules are retold here after PubChem BioAssay (NCI).

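Values below derive from 48-hour exposures of cells grown in 96-well plates, with endpoints linearly interpolated between the two concentrations bracketing the appropriate inhibition level. The concentration for full growth arrest is given as TGI.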

Assay in all cases: NCI tumour cell line growth inhibition, 48 h
Test [1] relates to SNB-19 CNS.
The test system of test [2] is SK-MEL-28 melanoma.
Test [3] concerns ACHN renal.
In test [4] the test system is A498 renal.
Test [5] concerns SN12C renal.
In test [6] the test system is SR leukemia.
The subject of test [7] is MCF7 breast.
Test [8] deals with SW-620 colon.
Test [9] has as its system MDA-N.
Test [10] deals with BT-549 breast.
Test [11] deals with MDA-MB-435.
Test [12] concerns NCI-H522 lung.
Test [13] relates to A549 NSCLC.
The subject of test [14] is SK-OV-3 ovarian.
The test system of test [15] is HL-60(TB) leukemia.
Test [16] relates to SF-295 CNS.
Test [17] deals with PC-3 prostate.

`COC1=CC(=O)C2=C(C1=O)[C@H]1CC[C@]3(C)[C@@H](O)CC[C@H]3[C@@H]1CC2`: the TGI in test [1] is 73.2 µM; in test [2], 38.3 µM; in test [3], 31.9 µM; in test [4] it was over 100 µM; in test [5] it was 30.6 µM; in test [6] it was 55.4 µM. The TGI is 30.7 µM in test [7]; over 100 µM in test [8]; 32.8 µM in test [9]; 31.8 µM in test [10]; 33.3 µM in test [11]; 31.8 µM in test [12]. The TGI was 34.7 µM in test [13]; over 100 µM in test [14]; 46.5 µM in test [15]; 30.3 µM in test [16]; 30 µM in [17].

With `COc1ccc(C(=O)/C=C/c2ccc(O)c(O)c2)c(OC)c1`, the TGI is 19.4 µM in [1]; 48.4 µM in [2]; over 70.3 µM in test [3]; 21.2 µM in test [4]; 13.2 µM in test [5]; 6.54 µM in test [6]. For the same molecule, the TGI in test [7] was 14.1 µM; in [8] it was over 63.8 µM; in test [9], over 46.2 µM; in [10], 20.4 µM; in [11], over 48.5 µM; in test [12] it was 0.74 µM. The TGI in test [13] is 97.3 µM; in [14], over 67.9 µM; in test [15] it was 2.53 µM; in test [16], 31 µM; in [17], 26.4 µM.

For the molecule `O=C1OCC2OC(=O)c3cc(O)c(O)c(O)c3-c3c(O)c(O)c(O)c4c3C(=O)OC(C2OC(=O)c2cc(O)c(O)c(O)c2-c2c1cc(O)c(O)c2O)C1OC(=O)c2c-4c(O)c(O)c(O)c2[C@@H]1C(O)C(O)C(O)C(O)CO` (stereo not given in full), the TGI in [1] is over 100 µM; in [2], over 100 µM; in test [3] it was 30.7 µM; in test [4], over 100 µM; in test [5] it was 32.6 µM; in [6] it was over 100 µM. Further, the TGI in test [7] turned out to be 17.6 µM; in [8], 44.5 µM; in [9], 25.5 µM; in test [10], 55.2 µM; in [11], 21.9 µM; in test [12], 39.7 µM. Moreover, the TGI was 43.7 µM in test [13]; 59 µM in test [14]; 50.8 µM in [15]; 43.7 µM in [16]; 42.7 µM in test [17].

With `C=CCN1C(=O)/C(=C/c2cccs2)N=C1SC/C=C/C`, the TGI in test [1] was over 100 µM; in test [2], over 100 µM; in [3] it was over 100 µM; in test [4] it was 98.8 µM; in [5], 86.6 µM; in test [6], 45.8 µM. For the same molecule, the TGI in test [7] was over 100 µM; in test [8] it was over 100 µM; in test [9], over 100 µM; in test [10] it was over 100 µM; in test [11], over 100 µM; in [12], 97.5 µM. Besides, the TGI in test [13] was over 100 µM; in test [14], over 100 µM; in test [15] it was 62.2 µM; in test [16], over 100 µM; in test [17], over 100 µM.

As to `CC1=NN(C(=O)c2ccncc2)C(=O)C1`, the TGI in [1], in test [2], in test [3], in test [4], in test [5] and in [6] was over 100 µM in each case. Besides, the TGI in test [7], in [8], in test [9], in test [10], in [11] and in test [12] was over 100 µM throughout. In addition, the TGI in [13], in [14], in test [15], in test [16] and in [17] was over 100 µM in each case.
